Measured values: PubChem BioAssay (NCI)
Where “and” joins values, the source holds several entries; their conditions need not be identical. Equal values may be shown once.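 How tested: cells in 96-well plates exposed to compound for 48 hours at five concentrations. Here, GI50 denotes the concentration required for 50% inhibition of growth. TGI: total growth inhibition.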

Assays:
Assay in all cases: inhibition of tumour cell growth, NCI panel, 48 h
K-562 leukemia = tested on: K-562 leukemia
SN12C renal = tested on: SN12C renal
IGROV1 ovarian = tested on: IGROV1 ovarian
MALME-3M melanoma = tested on: MALME-3M melanoma
OVCAR-4 ovarian = tested on: OVCAR-4 ovarian
NCI-H23 lung = tested on: NCI-H23 lung
SK-MEL-2 melanoma = tested on: SK-MEL-2 melanoma
MDA-N = tested on: MDA-N
OVCAR-8 ovarian = tested on: OVCAR-8 ovarian
TK-10 renal = tested on: TK-10 renal

SMILES: CC(C)(C)NC(=O)[C@H]1CC[C@H]2[C@@H]3CC=C4NC(=O)CC[C@]4(C)[C@H]3CC[C@]12C
- TGI (K-562 leukemia): > 100 µM
- TGI (SN12C renal): > 100 µM
- TGI (IGROV1 ovarian): > 100 µM
- TGI (MALME-3M melanoma): > 100 µM
- TGI (OVCAR-4 ovarian): > 100 µM
- TGI (NCI-H23 lung): > 100 µM
- TGI (SK-MEL-2 melanoma): > 100000 nM
- TGI (MDA-N): > 100000 nM
- TGI (OVCAR-8 ovarian): > 100000 nM
- TGI (TK-10 renal): > 100000 nM

SMILES: C=C1C(O)C2(O)OCC34C(CC5C(C)=CC(=O)C(O)C5(C)C23)OC(=O)C(OC(=O)C/C=C(\C)CCCCC)C14 (centres undefined)
- GI50 (K-562 leukemia): < 1 nM
- GI50 (SN12C renal): 1.57 nM
- GI50 (IGROV1 ovarian): < 1 nM
- GI50 (MALME-3M melanoma): < 1 nM
- TGI (MALME-3M melanoma): < 0.001 µM
- GI50 (OVCAR-4 ovarian): < 1 nM
- GI50 (NCI-H23 lung): < 1 nM
- GI50 (SK-MEL-2 melanoma): 1.13 nM
- TGI (SK-MEL-2 melanoma): 9.85 nM and 42 nM
- TGI (MDA-N): 2.29 nM and 17.9 nM
- GI50 (OVCAR-8 ovarian): < 1 nM
- TGI (OVCAR-8 ovarian): 5.65 nM and 19.2 nM and 18.8 nM
- GI50 (TK-10 renal): 23.9 nM
- TGI (TK-10 renal): 11.9 nM and 86.5 nM
